Measurements taken from paper PMC9085577, “Discovery of a Potent and Orally Active Dual GPBAR1/CysLT1R Modulator for the Treatment of Metabolic Fatty Liver Disease” (Frontiers in Pharmacology, 2022).

Tested on: liver transcriptome
Assay: AmpliSeq liver transcriptome of HFD-F mice
Format: in vivo
Details: liver, HFD-F + compound 2 vs HFD-F
From the text: C57BL/6J male mice were fed a high fat diet (HFD) containing 59 KJ% fat plus 1% cholesterol, w/o sugar (ssniff ® EF R/M acc. D12330 mod. 22,7 ME/kg) and fructose (HFD-F) in drinking water (42 g/L), or normal chow diet for 61 days. Food intake was estimated as the difference of weight between the offered and the remnant amount of food at 3-days intervals. The food was provided as pressed pellets and the residual spillage was not considered. After 7 days, HFD-F mice were randomized to receive HFD-F alone or in combination with compound 2 (30 mg/kg/day) by gavage until the end of the experiment. Doses of each agent were chosen according to previously published data. Mice were housed under controlled temperature (22°C) and photoperiods (12:12-h light/dark cycle), allowed unrestricted access to standard mouse chow and tap water. The experimental protocol was approved by the Animal Care and Use Committee of the University of Perugia and by the Italian Minister of Health and Istituto Superiore di Sanità (Italy) and was in agreement with the European guidelines for use of experimental animals (permission n. 583/2017-PR). The general health of the animals was monitored daily by the Veterinarian in the animal facility. At the day of sacrifice, fed mice were deeply anesthetized with a mixture of tiletamine hypochloride and zolazepam hypochloride/xylazine at a dose of 50/5 mg/kg and sacrificed before 12 a.m.
High-quality RNA was extracted from mice livers, using the Direct-zol™ RNA MiniPrep w/Zymo-Spin™ IIC Columns (Zymo Research, Irvine, CA) according to the manufacturer’s instructions. RNA quality and quantity were assessed with the Qubit® RNA HS Assay Kit and a Qubit 3.0 fluorometer (Invitrogen, Carlsbad, CA) followed by agarose gel electrophoresis. Libraries were generated using the Ion AmpliSeq™ Transcriptome Mouse Gene Expression Core Panel and Chef-Ready Kit (Comprehensive evaluation of AmpliSeq transcriptome, a whole transcriptome RNA sequencing methodology) (Thermo Fisher Scientific, Waltham, MA). Briefly, 10 ng of RNA was reverse transcribed with SuperScript™ Vilo™ cDNA Synthesis Kit (Thermo Fisher Scientific, Waltham, MA) before library preparation on the Ion Chef™ instrument (Thermo Fisher Scientific, Waltham, MA). The resulting cDNA was amplified to prepare barcoded libraries using the Ion Code™ PCR Plate, and the Ion AmpliSeq™ Transcriptome Mouse Gene Expression Core Panel (Thermo Fisher Scientific, Waltham, MA), Chef-Ready Kit, according to the manufacturer’s instructions. Barcoded libraries were combined to a final concentration of 100 p.m., and used to prepare Template-Positive Ion Sphere™ (Thermo Fisher Scientific, Waltham, MA) Particles to load on Ion 540™ Chips, using the Ion 540™ Kit-Chef (Thermo Fisher Scientific, Waltham, MA). Sequencing was performed on an Ion S5™ Sequencer with Torrent Suite™ Software v6 (Thermo Fisher Scientific, Waltham, MA). The analyses were performed with a range of fold <−2 and >+2 and a p value <0.05, using Transcriptome Analysis Console Software (version 4.0.1), certified for AmpliSeq analysis (Thermo-Fisher). The transcriptomic data have been deposited as dataset on Mendeley data repository (reference number linking to the repository: Fiorucci, Stefano; Biagioli, Michele; Marchianò, Silvia; Di Giorgio, Cristina (2021), “Discovery of potent dual GPBAR1/CysLT1R modulator for the treatment of metabolic fatty liver disease,” Mendeley Data, V1, doi: 10.17632/6dnrk9fc72.1).

## O=C(O)c1cccc(-c2ccc(OCc3ccc4ccccc4n3)cc2)c1 [Compound 2, 4'-(quinolin-2-ylmethoxy)-[1,1′-biphenyl]-3-carboxylic acid]
  Gm31649 transcript Fold Change: 2.82
  Gm36796 transcript Fold Change: -2.15
  Gnat1 transcript Fold Change: -2.26
  Gngt1 transcript Fold Change: -2.64
  Gpnmb transcript Fold Change: -3.95
  Hnf4aos transcript Fold Change: 2.36
  Hnrnpa0 transcript Fold Change: -2.58
  Hspa5 transcript Fold Change: -2.37
  Igip transcript Fold Change: -2.32
  Il1b transcript Fold Change: -2.2
  Il1rn transcript Fold Change: -2.12
  Insig2 transcript Fold Change: -3.18
  Itgam transcript Fold Change: -5.37
  Kif20a transcript Fold Change: -2.25
  LOC108167447 transcript Fold Change: 2.42
  LOC108168323 transcript Fold Change: -2.25
  Lactb2 transcript Fold Change: -2.04
  Ly6d transcript Fold Change: -4.62
  Meg3 transcript Fold Change: 2.02
  Mettl9 transcript Fold Change: -2.22
  Mki67 transcript Fold Change: -2.36
  Mogat1 transcript Fold Change: -2.13
  Mthfd2 transcript Fold Change: -2.03
  Mvd transcript Fold Change: -2.06
  Nat8 transcript Fold Change: 2.38
  Neat1 transcript Fold Change: -2.87
  Npas2 transcript Fold Change: -3.98
  Nr4a1 transcript Fold Change: -2.25
  Nrep transcript Fold Change: 2.34
  Nuak2 transcript Fold Change: 2.15
  Pcbp1 transcript Fold Change: -4.32
  Pcp4l1 transcript Fold Change: 2.55
  Pdilt transcript Fold Change: 3.33
  Pdpn transcript Fold Change: -2.04
  Per3 transcript Fold Change: 4.98
  Plau transcript Fold Change: -4.02
  Plaur transcript Fold Change: -2.77
  Pld6 transcript Fold Change: 2.03
  Plekhg3 transcript Fold Change: 2.05
  Plxnc1 transcript Fold Change: -2.05
  Pnpla3 transcript Fold Change: -2.9
  Podn transcript Fold Change: 2.29
  Ppp1r3c transcript Fold Change: -2.05
  Prox1 transcript Fold Change: 2.06
  Psat1 transcript Fold Change: -2.69
  Ptgs2 transcript Fold Change: -4.87
  Raet1e transcript Fold Change: -2.18
  Raet1d transcript Fold Change: -2.32
  Ralbp1 transcript Fold Change: 3.61
  Rhob transcript Fold Change: -3.06
  Rrs1 transcript Fold Change: -2.27
  Saa4 transcript Fold Change: 5.34
  Sart3 transcript Fold Change: 2.37
  Sbk1 transcript Fold Change: 2.54
  Sec11c transcript Fold Change: -2.18
  Senp1 transcript Fold Change: 3.54
  Serpina7 transcript Fold Change: -2.84
  Serpine1 transcript Fold Change: -3.49
  Slc16a1 transcript Fold Change: -2.37
  Slc17a8 transcript Fold Change: -2.06
  Slc39a8 transcript Fold Change: -2.02
  Slc40a1 transcript Fold Change: -2.28
  Slc46a3 transcript Fold Change: 2.23
  Spon2 transcript Fold Change: -3.19
  Sqle transcript Fold Change: -2.72
  Stfa3 transcript Fold Change: -9.86
  Taok3 transcript Fold Change: 2.06
  Tk1 transcript Fold Change: 2.3
  Tmx1 transcript Fold Change: 2.28
  Tnf transcript Fold Change: -2.39
  Tnfrsf23 transcript Fold Change: -2.38
  Tnnc1 transcript Fold Change: 2.09
  Tsku transcript Fold Change: 2.15
  Ubqln2 transcript Fold Change: -2.65
  Uhrf1 transcript Fold Change: -2.03
  Upp2 transcript Fold Change: 2.5
  Usp2 transcript Fold Change: 3.94
  Wrn transcript Fold Change: 3.79
  Zfp101 transcript Fold Change: -2.1
  Zfp445 transcript Fold Change: 2.82
